According to US20100063020A1, “ORAL PHARMACEUTICAL FORMULATIONS AND METHODS FOR PRODUCING AND USING SAME” (priority 2004, published 2010):
≈ marks a conversion by molar mass, not a printed value. Where “and” joins values, the source holds several entries; their conditions need not be identical. Identical values can stand only once.

Key:
[1] = Solubility assay in simulated intestinal fluid (SIF); format: physicochemical; details: low melt form; simulated intestinal fluid per USP w/o pancreatin, 24 hours at 37° C.
Protocol: The solubility of an active ingredient may be assayed by its dissolution in a simulated intestinal fluid (SIF) (per USP w/o pancreatin). Conforma Therapeutics has developed a database of SIF solubility data using this assay for a structurally diverse set of compounds that have also been administered orally to mice.
The mixture was incubated with continuous shaking for a predetermined time and temperature, e.g., for 24 hours at 37° C. […] The solubility of the active ingredient is calculated as the difference between the initial and final concentration of the active ingredient in the supernatant normalized to the total volume of SIF used.
The tube was then sonicated for 5 minutes then incubated for 24 hours at 37° C. with shaking. […] Conforma Therapeutics has developed a database of SIF solubility data using this assay for a structurally diverse set of compounds that have also been administered orally to mice.

[2] = Absolute oral bioavailability of 17-AAG lipid complex formulation in female rats; format: in vivo, Sprague-Dawley rats; details: rat; for Apparent Absolute Bioavailability: oral 50 mg/kg vs intravenous 10 mg/kg
Protocol: Female Sprague-Dawley rats were administered a phospholipid complex formulation of the low melt form of 17-AAG by oral gavage or as intravenous infusion (tail vein). Blood samples were collected prior to dosing and up to 6 hrs post dosing.
% F=[(Oral AUC(0-6h)×I.V. Dose)/(I.V. AUC(0-6h)×Oral Dose)]*100.
Blood samples (n=11) were collected via the jugular vein catheter prior to dosing and up to 6 hrs post dosing. The blood was allowed to clot at room temperature for approximately 20 minutes and then placed on ice until centrifugation at 10,000×G for 10 minutes. Serum was collected into polypropylene tubes and frozen at −80° C. until analysis.

[3] = intravenous 10 mg/kg, individual animal, 10 mg/kg
[4] = intravenous 10 mg/kg, metabolite 17-AG, individual animal, 10 mg/kg
[5] = intravenous 10 mg/kg, metabolite 17-AG, mean n=3
[6] = oral 50 mg/kg, individual animal, 50 mg/kg
[7] = oral 50 mg/kg, metabolite 17-AG, individual animal, 50 mg/kg

C=CCNC1=C2C[C@@H](C)C[C@H](OC)[C@H](O)[C@@H](C)/C=C(\C)[C@H](OC(N)=O)[C@@H](OC)/C=C\C=C(/C)C(=O)NC(=CC1=O)C2=O [Compound 17-AAG, 17-allylamino-17-demethoxygeldanamycin]
solubility in SIF [1]: 88 µg/mL (≈ 150 µM)
17-AAG AUC(0-6) [2, 3]: 172 µg·min/mL and 161 µg·min/mL and 135 µg·min/mL
17-AAG Cmax [2, 3]: 8700 ng/mL and 8000 ng/mL and 7000 ng/mL
17-AAG AUC(0-6) ([2]; intravenous 10 mg/kg, mean n=3): 156 µg·min/mL
17-AAG Cmax ([2]; intravenous 10 mg/kg, mean n=3): 7900 ng/mL
17-AG AUC(0-6) [2, 4]: 17 µg·min/mL and 25 µg·min/mL and 37 µg·min/mL
17-AG Cmax [2, 4]: 300 ng/mL and 200 ng/mL
17-AG AUC(0-6) [2, 5]: 26 µg·min/mL
17-AG Cmax [2, 5]: 200 ng/mL
Apparent Absolute Bioavailability ([2]; individual animal): 160% and 129% and 39%
Apparent Absolute Bioavailability ([2]; mean n=3): 109±63%
17-AAG mean serum concentration six hours post oral dosing ([2]; oral 50 mg/kg, 6 h): 1.6 ± 0.8 µg/mL
17-AG mean serum concentration six hours post oral dosing ([2]; oral 50 mg/kg, 6 h, metabolite 17-AG): 0.6 ± 0.1 µg/mL
17-AAG AUC(0-6) [2, 6]: 1248 µg·min/mL and 1003 µg·min/mL and 305 µg·min/mL
17-AAG Cmax [2, 6]: 5700 ng/mL and 4700 ng/mL and 1200 ng/mL
17-AAG AUC(0-6) ([2]; oral 50 mg/kg, mean n=3): 852 µg·min/mL
17-AAG Cmax ([2]; oral 50 mg/kg, mean n=3): 3900 ± 2400 ng/mL
17-AG AUC(0-6) [2, 7]: 252 µg·min/mL and 238 µg·min/mL and 156 µg·min/mL
17-AG Cmax [2, 7]: 1200 ng/mL and 900 ng/mL
17-AG AUC(0-6) ([2]; oral 50 mg/kg, metabolite 17-AG, mean n=3): 215 µg·min/mL
17-AG Cmax ([2]; oral 50 mg/kg, metabolite 17-AG, mean n=3, 50 mg/kg): 1000 ng/mL
